The text below walks through data of PubChem BioAssay (NCI).

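Protocol summary: plate cells (96-well), add compound at 5 concentrations, incubate 48 h, interpolate endpoints linearly. At the GI50, growth is halved. TGI: total growth inhibition.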

Holding throughout (assay): NCI anticancer screen, dose series, 48 h
The test system of assay [1] is HCT-15 colon.
Assay [2] relates to IGROV1 ovarian.
In assay [3] the test system is SNB-75 CNS.
In assay [4] the test system is SF-295 CNS.
The subject of assay [5] is ACHN renal.
Assay [6] has as its system SR leukemia.
For assay [7], the system named is NCI-H522 lung.
Assay [8] deals with UACC-62 melanoma.
For assay [9], the system named is EKVX NSCLC.
Assay [10] has as its system MCF7 breast.

Take `O=C(Nc1ccc(Cl)c(Cl)c1)Nc1ccc(Cl)c([N+](=O)[O-])c1`: the GI50 in assay [1] is 0.845 µM; in [2], 1.61 µM; in [3], 4.74 µM; in [4], 0.688 µM; in assay [5] it was 0.8 µM; in [6], 2.58 µM. For the same molecule, the GI50 in assay [7] is 0.996 µM; in [8], 1.13 µM; in assay [9] it was 1.04 µM; in assay [10], 0.795 µM. Besides, the TGI in assay [1] is 3.56 µM; in assay [2] it was 6.4 µM; in [3] it was 24.4 µM; in [4], 2.54 µM; in [5], 3.06 µM; in [6] it was above 25 µM. Further, the TGI in assay [7] was 4.9 µM; in assay [8], 4.15 µM; in assay [9] it was 7.35 µM; in [10] it was 8.32 µM.
For `COc1ccc(NC(=O)c2ccc(NC3=C(Cl)C(=O)N(Cc4ccccc4)C3=O)cc2)cc1`, the GI50 was 4.04 µM in assay [1]; 1.5 µM in assay [2]; 12.9 µM in assay [3]; 3.52 µM in [4]; 3.64 µM in [5]; 0.766 µM in assay [6]. The GI50 in [7] was 3.3 µM; in [8] it was 16.3 µM; in [9], 32.1 µM; in assay [10], 7.9 µM. The TGI in assay [1] turned out to be 17.3 µM; in assay [2], 3.93 µM; in assay [3], 34.6 µM; in [4], 10.4 µM; in assay [5], 12.7 µM; in assay [6], 3.61 µM. Besides, the TGI in assay [7] is 13.8 µM; in assay [8], 36.8 µM; in assay [9] it was above 100 µM; in assay [10], above 100 µM.
Take `O=C(Nc1nc2ncn(CCOC(=O)c3ccccc3)c2c(=O)[nH]1)c1ccccc1`: the TGI in assay [1] was above 100 µM; in [2] it was above 100 µM; in assay [3], above 71.7 µM; in assay [4], 54.2 µM; in assay [5] it was above 100 µM; in [6], above 100 µM. Moreover, the TGI in [7] is 8.32 µM; in assay [8] it was above 100 µM; in assay [9], above 100 µM; in assay [10], above 100 µM.
Turning to `Cn1cc(-c2ccc3cc(-c4ccc(CC(=O)Nc5cc(C(C)(C)C)nn5C)cc4)cnc3c2)cn1`, the GI50 was 0.157 µM in assay [1]; 0.063 µM in [2]; 0.0723 µM in assay [3]; 0.307 µM in assay [4]; 0.11 µM in assay [5]; 0.256 µM in assay [6]. In addition, the GI50 in assay [7] was 0.251 µM; in assay [8] it was 0.179 µM; in [9] it was 0.282 µM; in assay [10], 0.496 µM. The TGI in assay [1], in assay [2], in assay [3], in [4], in assay [5] and in assay [6] was above 100 µM in each case. The TGI in assay [7], in [8], in assay [9] and in assay [10] was above 100 µM throughout.
In the case of `COc1cc[c]([Hg][Cl])cc1`, the GI50 is 1.08 µM in [1]; 1.53 µM in assay [2]; 1.69 µM in [3]; 15.5 µM in [4]; 1.81 µM in [5]; 0.245 µM in assay [6]. For the same molecule, the GI50 was 0.45 µM in [7], 4.09 µM in assay [8], 9.51 µM in assay [9] and 1.01 µM in assay [10]. The TGI amounted to 2.36 µM in assay [1]; 3.92 µM in assay [2]; 4.37 µM in [3]; 29.7 µM in [4]; 3.47 µM in [5]; 4.13 µM in assay [6]. In addition, the TGI in [7] was found to be 2.61 µM; in assay [8] it was 14.9 µM; in assay [9] it was 22.8 µM; in [10], 4.53 µM.
Consider `O=C1CCCC1C(=O)Nc1ccc2ccccc2c1` (centres undefined), for which the TGI in [1], in [2], in assay [3], in assay [4], in [5] and in assay [6] was above 100 µM each time. In addition, the TGI in [7], in assay [8], in [9] and in assay [10] was above 100 µM in each case.
With `C#Cc1cccc(NC(=O)Nc2ccccc2NC(=O)CCl)c1`, the GI50 in [1] was 15.1 µM; in assay [2], 13.6 µM; in assay [3] it was 9.11 µM; in [4] it was 39.4 µM; in assay [5], 14.5 µM; in assay [6] it was 23.8 µM. Besides, the GI50 in assay [7] was 20.8 µM; in assay [8], 13.8 µM; in assay [9], 19.3 µM; in assay [10] it was 16.6 µM. Further, the TGI in assay [1] is 41.6 µM; in assay [2], 28 µM; in assay [3], 19.8 µM; in assay [4] it was above 82.5 µM; in [5], 30.6 µM; in [6] it was above 82.5 µM. For the same molecule, the TGI in [7] is 71.5 µM; in assay [8], 25.8 µM; in assay [9] it was 66.2 µM; in assay [10], above 82.5 µM.
For `COc1cc([C@@H]2c3cc4c(cc3[C@H](OC3OC5COC(c6ccccc6)OC5C(O)C3O)[C@H]3COC(=O)[C@H]23)OCO4)cc(OC)c1OC` (some centres undefined), the GI50 in assay [1] was 0.281 µM; in [2] it was 0.337 µM; in assay [3] it was 0.403 µM; in assay [4], 0.27 µM; in assay [5], 0.596 µM; in assay [6], 0.31 µM. Further, the GI50 in assay [7] is 0.322 µM; in assay [8], 0.515 µM; in [9], 0.426 µM; in assay [10] it was 0.279 µM. Further, the TGI in assay [1] is 13.7 µM; in [2], 1.34 µM; in assay [3], 8.11 µM; in [5], 12.7 µM; in [6] it was above 100 µM; in assay [7] it was 3.3 µM. In addition, the results for the TGI in assay [8], in assay [9] and in assay [10] were 22.1 µM, 24.2 µM and 4.2 µM, respectively.
